{"source": "patent US9782464B2", "about": "“Methods and compositions for inhibiting diseases of the central nervous system” (Board of Regents of the University of Nebraska, priority 2008, dated 2017)", "key": {"SPC (spleen cells)": {"tested_on": "SPC (spleen cells)", "experiment": "Antigen-specific 3H-thymidine proliferation of SPC from immunized mice", "format": "cell-based, mouse", "conditions": "B10.BR mice immunized in CFA/IFA"}, "[1]": {"tested_on": "anti-CD3 stimulated T cells", "experiment": "Proliferation of anti-CD3 activated T cells with 4YSyn or N-4YSyn", "format": "cell-based, mouse", "conditions": "1, 3, 10 and 30 μg/ml", "description": "For proliferation analyses, purified T cells from naive B6 mice were plated with SPC irradiated at 3000 rad (1:3) at 2×10^6 cells/ml in complete RPMI tissue culture media and activated with anti-CD3 (0.5 μg/ml, 145-2C11; BD Pharmingen) in U-bottom 96-well tissue culture plates. Graded concentrations of 4YSyn or N-4YSyn were added to quadruplicate wells. After activation for 3 days, ^3H-thymidine incorporation was performed as described previously."}, "[2]": {"tested_on": "anti-CD3 stimulated T cells", "experiment": "PI uptake cytotoxicity of anti-CD3 stimulated T cells (flow cytometry)", "format": "cell-based, mouse", "conditions": "24 hours", "description": "To assess α-Syn-mediated cytotoxicity, purified T cells were stimulated with anti-CD3 and cultured at a density of 1×10^6 cells/ml for 24 hours in media alone or in the presence of 4YSyn or N-4YSyn at concentrations of 1, 3, 10, or 30 μg/ml. Cells were stained with PI, washed and the percentages of PI^+ dead cells and MFI were analyzed by flow cytometry."}, "MES23.5 cells": {"tested_on": "MES23.5 cells", "experiment": "Cathepsin B inhibition and neurotoxicity, microglial supernatants on MES23.5 cells", "format": "cell-based", "conditions": "inhibitor 1 μM, N-α-syn 100 nM", "description": "MES 23.5 cells were cultured in 75-cm^2 flasks in DMEM/F12 with 15 mM HEPES (Invitrogen) containing N2 supplement (Invitrogen), 100 U/ml of penicillin, 100 μg/ml streptomycin, and 5% FBS. MES23.5 cells is a cell line derived using somatic cell fusion of rat embryonic mesencephalon cells and the murine neuroblastoma-glioma cell line N18TG2 that produce dopamine and express tyrosine hydroxylase (Crawford et al. (1992) J. Neuroscience 12:3392-3398). Cells were grown to 80% confluence then plated at a density of 10×10^4 cells on sterile glass coverslips. Microglia were plated in 6 well plates and incubated for 1 hour with or without 1 μM of cathepsin B inhibitors, CA-074 [cell impermeable] or CA-074 Me [cell permeable] (Sigma), in a 37° C., 5% CO2 incubator to inhibit residual cathepsin B expression (Gan et al. (2004) J. Biol. Chem., 279:5565-5572). […] MES 23.5 cell viability was assessed using the Live/Dead cytotoxicity assay (Invitrogen) as previously described. Live cells were distinguished by the uptake of calcein AM to acquire a green fluorescence [excitation/emission (ex/em) 495/515 nm], while dead cells acquired a red fluorescence (ex/em 495/635 nm) due to the uptake of ethidium homodimer-1 (EthD-1). Cell enumerations were performed using fluorescence microscopy (200× magnification, n=6 wells per group, 3 frames per well)."}, "TH+ neurons in the SN": {"tested_on": "TH+ neurons in the SN", "experiment": "Chronic MPTP intoxication, TH+ neuron counts in SN of WT and SCID mice", "format": "in vivo, mouse", "description": "For chronic intoxication, B6 mice received 5 intraperitoneal (i.p.) injections at 24 hour intervals for 5 days of either vehicle (PBS, 10 ml/kg) or MPTP-HCl (30 mg/kg of free base in PBS) (Sigma-Aldrich, St. Louis, Mo.). For acute intoxication, mice received 4 i.p. injections, one every 2 hours, of either vehicle (PBS, 10 ml/kg) or MPTP-HCl (18 mg/kg of free base in PBS for B10.BR mice, 14 or 18 mg/kg for B6 mice). At selected time points following MPTP intoxication, mice were sacrificed and brains processed for subsequent analyses. MPTP handling and safety measures were in accordance with published guidelines (Przedborski et al. (2001) J. Neurochem., 76:1265-1274).\nAt the time points indicated following MPTP intoxication, mice were transcardially perfused with 4% paraformaldehyde (PFA) in 0.1 M PBS using 0.9% saline as vascular rinse. Brains were post-fixed in 4% PFA overnight, kept in 30% sucrose for 2 days, snap frozen, embedded in OCT compound, and […] sections cut on a cryostat (CM1900, Leica, Bannockburn, Ill.). The sections were collected in PBS and processed free-floating. […] Fluoro-Jade C (Chemicon International, Inc., Temecula, Calif.) was used to stain degenerating neurons (Schmued et al. (2005) Brain Res., 1035:24-31) and was detected as green fluorescence by fluorescence microscopy with FITC filter (Eclipse E800, Nikon, Inc., Melville, N.Y.). […]"}, "[3]": {"tested_on": "MPTP-intoxicated B10.BR mice", "experiment": "Adoptive transfer of immune SPC or T cells to MPTP-treated B10.BR mice", "format": "in vivo, mouse"}, "MPTP-intoxicated B6 mice": {"tested_on": "MPTP-intoxicated B6 mice", "experiment": "Adoptive transfer of immune SPC to MPTP-treated B6 mice", "format": "in vivo, mouse", "conditions": "day 7"}, "MPTP-intoxicated mice [4]": {"tested_on": "MPTP-intoxicated mice", "experiment": "Adoptive transfer of N-4YSyn and VIP SPC or Treg to MPTP-intoxicated mice (Example 6)", "format": "in vivo, mouse", "description": "(§1) Recombinant C-terminal tail of α-syn (4YSyn) was purified, nitrated (N-4YSyn), and tested for endotoxin as described. Male C57BL/6J mice and FoxP3-GFP knock in C57BL/6J mice (5 weeks old, The Jackson Laboratory) were immunized with N-4YSyn emulsified in adjuvant as described. […] Recipient mice received four i.p. injections at 2 hour intervals of either vehicle (PBS, 10 mL/kg bodyweight) or MPTP-HCl (16 mg MPTP/kg bodyweight of free base in PBS; Sigma-Aldrich). Twelve hours after the last injection, MPTP-intoxicated mice received adoptive transfers of whole SPC, Treg or no cells (n=5-7 mice per group per time point). On days 2 and 7 post-MPTP, mice were sacrificed and brains were processed for analysis. […] MPTP safety measures were in accordance with published guidelines (Przedborski et al. (2001) J. Neurochem., 76:1265-1274).\nSeven days following treatment, mice were sacrificed and single cell suspensions were prepared from inguinal lymph nodes and spleens. CD4+ T cell populations from spleens and lymph nodes were enriched by negative selection with CD4-enrichment columns (R & D Systems) followed by CD25-PE positive selection with AutoMACS (Miltenyi Biotec). […] Proliferation and inhibition assays were performed as described. MPTP-intoxicated mice received an i.v. tail injection of 5×10^7 SPC or 1×10^6 Treg in 0.25 ml of HBSS.\nMice were transcardially-perfused with PBS followed by 4% paraformaldehyde (PFA, Sigma). Frozen midbrain sections (30 μm) were immunostained for Mac-1 (CD11b, 1:1000; Serotec). Fluorojade C staining (Millipore) was performed on adjacent sections according to manufacturer's protocol to assess degenerating neurons and quantified using ImageJ. Overall dopaminergic neuron survival was assessed seven days following MPTP intoxication and resolution of cell death processes with polyclonal antibody to mouse Tyrosine hydroxylase (TH), 1:1000 (Calbiochem) and counterstained for Nissl substance by thionin staining (Tieu et al. (2003) J. Clin. Invest., 112:892-901) as previously described (Benner et al. (2004) Proc. Natl. Acad. Sci., 101:9435-9440). Total numbers of Mac-1^+ cells, […] and Nissl-stained neurons in the SNpc were estimated by stereological analysis with StereoInvestigator software (MicroBrightfield) using the optical fractionator module (Liberatore et al. (1999) Nat. Med., 5:1403-1409). Quantitation of striatal TH (1:500; Calbiochem) was performed by densitometric analysis as described (Benner et al. (2004) Proc. Natl. Acad. Sci., 101:9435-9440). Adjacent midbrain sections were immunostained for CD4 (L3T4; 1:200, BD Pharmingen). Sections were incubated in streptavidin-horseradish peroxidase (HRP) solution (ABC Elite vector kit, Vector Laboratories), and color developed using a generation system consisting of diaminobenzidine (DAB) chromogen (Sigma-Aldrich) as described (Benner et al. (2004) Proc. Natl. Acad. Sci., 101:9435-9440)."}, "MPTP-intoxicated mice [5]": {"tested_on": "MPTP-intoxicated mice", "experiment": "Adoptive transfer of polarized N-4YSyn CD4+ T cell subsets to MPTP-intoxicated mice", "format": "in vivo, mouse", "conditions": "7 days after MPTP", "description": "as §1\nCD4+ T cells were isolated from N-4YSyn immunized donors and cultured 1×10^6/ml CD4+ T cells with 2×10^6/ml irradiated SPC and […] N-4YSyn in 20 ml of complete RPMI 1640 supplemented with 10% FBS, 2 mM L-glutamine, 10 mM HEPES, 55 μm 2-mercaptoethanol, 100 units/ml penicillin, and 100 μg/ml streptomycin in T25 flasks. […]\nMice were transcardially-perfused with PBS followed by 4% paraformaldehyde (PFA, Sigma). […] Fluorojade C staining (Millipore) was performed on adjacent sections according to manufacturer's protocol to assess degenerating neurons and quantified using ImageJ. Overall dopaminergic neuron survival was assessed seven days following MPTP intoxication and resolution of cell death processes with polyclonal antibody to mouse Tyrosine hydroxylase (TH), 1:1000 (Calbiochem) and counterstained for Nissl substance by thionin staining (Tieu et al. (2003) J. Clin. Invest., 112:892-901) as previously described (Benner et al. (2004) Proc. Natl. Acad. Sci., 101:9435-9440). […] Quantitation of striatal TH (1:500; Calbiochem) was performed by densitometric analysis as described (Benner et al. (2004) Proc. Natl. Acad. Sci., 101:9435-9440). […]"}, "B6 SOD1 Tg mice": {"tested_on": "B6 SOD1 Tg mice", "experiment": "COP-1 immunization of B6 SOD1 Tg mice"}}, "data": [{"compound": "4YSyn: recombinant His-tagged C-terminal 40 aa α-Syn fragment containing all four tyrosine residues, non-nitrated", "values": [{"measurement": "proliferative response of SPC to in vitro stimulation with the antigen", "setting": "SPC (spleen cells)", "result": "no significant immune responses"}, {"measurement": "proliferation of anti-CD3 stimulated T cells", "setting": "[1]", "result": "not inhibited"}, {"measurement": "% PI+ T cells", "setting": "[2]; 1 μg/ml", "result": 4.9, "unit": "%"}, {"measurement": "MFI of PI-stained T cells", "setting": "[2]; 1 μg/ml", "result": 32.3}, {"measurement": "% PI+ T cells", "setting": "[2]; 3 μg/ml", "result": 6, "unit": "%"}, {"measurement": "MFI of PI-stained T cells", "setting": "[2]; 3 μg/ml", "result": 34.1}, {"measurement": "% PI+ T cells", "setting": "[2]; 10 μg/ml", "result": 4.7, "unit": "%"}, {"measurement": "MFI of PI-stained T cells", "setting": "[2]; 10 μg/ml", "result": 25.2}, {"measurement": "% PI+ T cells", "setting": "[2]; 30 μg/ml", "result": 4.2, "unit": "%"}, {"measurement": "MFI of PI-stained T cells", "setting": "[2]; 30 μg/ml", "result": 26.8}]}, {"compound": "CCCNC(=O)[C@H]1O[C@@H]1C(=O)N[C@H](C(=O)N1CCC[C@H]1C(=O)O)[C@@H](C)CC", "note": "[CA-074]", "values": [{"measurement": "protection of DA cells v. N-α-syn alone", "setting": "MES23.5 cells", "result": 53, "unit": "%"}]}, {"compound": "CN1CC=C(c2ccccc2)CC1", "note": "[MPTP, 1-methyl-4-phenyl-1,2,3,6-tetrahydropyridine]", "values": [{"measurement": "numbers of TH+ neurons compared to PBS", "setting": "TH+ neurons in the SN; SCID mice", "result": "No significant difference"}, {"measurement": "reduction in numbers of TH+ neurons in the SN compared to PBS", "setting": "TH+ neurons in the SN; WT B6 mice, 21 days after last injection", "result": 33, "unit": "%"}, {"measurement": "reduction of SN TH+ neurons compared to PBS controls", "setting": "[3]; MPTP-treated B10.BR mice, stereology", "result": 45, "unit": "%"}, {"measurement": "Counts of Mac-1+ microglia", "setting": "[3]; SN of MPTP-treated B10.BR mice, mean±SEM", "result": "27.7±3.2 /mm^2"}, {"measurement": "loss of TH+ nigral neurons compared to PBS-treated controls", "setting": "MPTP-intoxicated B6 mice", "result": 43, "unit": "%"}, {"measurement": "increase in numbers of Mac-1+ cells within the SNpc compared with PBS controls", "setting": "MPTP-intoxicated mice [4]; 2 days post-MPTP", "result": "greater than 16 fold"}, {"measurement": "loss of nigral TH+ neurons compared with PBS controls", "setting": "MPTP-intoxicated mice [4]; 7 days after MPTP, FIG. 35C", "result": 45, "unit": "%"}, {"measurement": "reduction of SNpc TH+ neurons compared with PBS controls", "setting": "MPTP-intoxicated mice [4]; 7 days after MPTP, FIG. 38B", "result": 48, "unit": "%"}, {"measurement": "Striatal TH+ density", "setting": "MPTP-intoxicated mice [4]; 7 days after MPTP, FIG. 38C", "result": "16 % of PBS controls"}, {"measurement": "TH+ neuron survival", "setting": "MPTP-intoxicated mice [4]; MPTP mice, FIG. 38D, Treg co-transferred with N-4YSyn SPC", "result": 49, "unit": "%"}, {"measurement": "TH density within the striatum", "setting": "MPTP-intoxicated mice [5]", "result": "26 % of PBS-treated controls"}, {"measurement": "loss of TH+ neurons vs PBS-treated controls", "setting": "MPTP-intoxicated mice [5]", "result": 25, "unit": "%"}, {"measurement": "total TH+ neurons within the SNpc", "setting": "MPTP-intoxicated mice [5]", "result": "5971±250"}]}, {"compound": "glatiramer acetate [COP-1]", "values": [{"measurement": "increase of mean age of survival compared to PBS controls", "setting": "B6 SOD1 Tg mice; 75 μg s.c. every other week", "result": 6.1, "unit": "%"}, {"measurement": "increase of mean age of survival compared to PBS controls", "setting": "B6 SOD1 Tg mice; 75 μg s.c. weekly", "result": 9.9, "unit": "%"}]}]}
